Laboratory results as given in US10294476B2, “NEAT1 as a prognostic marker and therapeutic target for prostate cancer” (CORNELL UNIVERSITY, priority 2014, dated 2019).

Assays:
Assay type in all cases: cell-based
VCaP cells [1] = assay: Colony-forming assay in NEAT1-overexpressing VCaP cells; details: NEAT1-overexpressing VCaP cells with vs without E2 (10 nM), 21 days
Experimental: Soft agar assays were performed in both VCaP and VCaP NEAT1 cells. Colonies were monitored over a period of 21 days. […] These in vitro assays establish an oncogenic role for NEAT1.

VCaP cells [2] = assay: Cell invasion assay (CHEMICON kit); details: E2 (10 nM), 48 hrs
Experimental: Invasion assay: The CHEMICON cell invasion assay kit (EMD MIlipore) was used for determining the cell invasion. Cells were serum-starved for 48 hours and then seeded at a density of 2×10^5 cells/well in the upper well of the invasion chamber. 500 μl of phenol res free DMEM media supplemented with 8% charcoal stripped serum and 10 nM E2 was added to the lower chamber. After 48-hour incubation, the invaded cells were stained by dipping the inserts in the staining solution for 20 minutes. The stained cells were then dissolved in 10% acetic acid and transferred to a 96-well plate for colorimetric reading of OD at 560 nm.

NEAT1 = NEAT1 expression (qRT-PCR) in treated prostate cancer cell lines; details: for NEAT1 expression: VCaP cells
Experimental: Cell culture and treatments: LnCaP and PC3 cells were grown in RPMI 1640 (Invitrogen) and supplemented with 10% fetal bovine serum (FBS) and 1% penicillin-streptomycin. RWPE1 cells were grown in Keratinocyte Serum Free Medium (K-SFM), Kit (Gibco, #17005-042). VCaP and DU145 cells were grown in DMEM (Invitrogen) and supplemented with 10% fetal bovine serum (FBS) with 1% penicillin streptomycin. NCI-H660 cells were grown in RPMI 1640 supplemented with 0.005 mg/ml insulin, 0.01 mg/ml transferrin, 30 nM sodium selenite, 10 nM hydrocortisone, 10 nM β-estradiol, 5% FBS, 1% penicillin-streptomycin and an extra 2 mM of L-glutamine (for a final concentration of 4 mM). For cell treatments in several experiments, the inventors used 10-100 nM β-estradiol (Sigma Aldrich), 10 μM Enzalutamide (Astellas), 10 μM bicalutamide (Sigma Aldrich), 1-10 nM R1881 (PE Biosystems), 10-100 nM 4-hydroxy tamoxifen (4OHT) (Sigma Aldrich), 1-10 μM ICI […] (Tocris Bioscience).
RNA isolation, cDNA synthesis and PCR experiments: Total RNA was isolated from frozen prostate tissue samples (for qPCR) and cell lines (for transcriptome sequencing and qPCR) using Trizol (Invitrogen) with DNase I digestion according to manufacturer's instructions. RNA integrity was verified on an Agilent Bioanalyzer 2100 (Agilent Technologies). cDNA was synthesized from total RNA using Superscript III (Invitrogen) and random primers (Invitrogen). Quantitative RT-PCR was performed using Power SYBR Green Mastermix (Applied Biosystems) on an Applied Biosystems 7900 Fast Real Time PCR machine. All primers were designed using Primer 3 and synthesized by Integrated DNA Technologies.
To test this hypothesis in vitro, the inventors evaluated the effect of anti-estrogens and anti-androgens on NEAT1 levels in prostate cancer cell lines.

NEAT1 promoter = NEAT1 promoter luciferase reporter assay; details: VCaP cells with ERα expression, -/+ E2 (10 nM) 24 hr
From the text: Luciferase reporter assays: For ERE luciferase assays, VCaP cells were transiently transfected with the (ERE)3-5V40-luc reporter plasmid and/or ERα and/or AR as well as an internal control construct pRL harboring the renilla luciferase gene. VCaP cells were also transfected with empty vector or NEAT1 promoter (1+2) luciferase reporter constructs alone or with ERα as well as an internal control construct pRL harboring renilla luciferase gene. In order to determine the PSMA reporter activity, 293T cells and PC3 cells were co transfected with empty vector or PSMA luc and Renilla-luc reporter genes alone or with NEAT1, NEAT1+ERα, or NEAT1+AR.
[…] At 48 h cells were lysed with passive lysis buffer and luciferase activities were measured using the dual luciferase system (#E1910, Promega) and normalized with renilla luciferase activity.
The inventors inspected our ERα ChIP-seq data in VCaP ERα and NCI-H660 cells and identified two ERα binding sites on the NEAT1 promoter (FIG. 2d). […] ERα recruitment to specific regions of the NEAT1 promoter was independently validated by ERα ChIP in VCaP, VCaP ERα and NCI-H660 cells (FIG. 2e) using specific primers encompassing ERα binding sites in the NEAT1 promoter. […]

[3] = ERα antagonist alone for longer periods
[4] = ERα antagonist in combination with E2 (10 nM)

For β-estradiol [E2], the number of colonies (VCaP cells [1]) was “significantly increased the number of colonies”, the invasive potential (VCaP cells [2]) was “ligand-dependent modulation of invasive potential” and the NEAT1 transcript levels (NEAT1; panel of prostate cancer cell lines, ERα overexpression and E2 treatment (10 nM), different time points) was “upregulated NEAT1 transcript levels in a time-dependent manner”. For the same molecule, the NEAT1 promoter activity (NEAT1 promoter) was “further enhanced”.
4-hydroxy tamoxifen [4OHT] was tested, and the NEAT1 expression (NEAT1; [3]) was “enhance NEAT1 expression” and the NEAT1 expression (NEAT1; [4]) was “constrained”.
For `C[C@]12CC[C@@H]3c4ccc(O)cc4C[C@@H](CCCCCCCCC[S+]([O-])CCCC(F)(F)C(F)(F)F)[C@H]3[C@@H]1CC[C@@H]2O` (some centres unmarked) [ICI 182,720], the NEAT1 expression (NEAT1; [3]) was “enhance NEAT1 expression” and the NEAT1 expression (NEAT1; [4]) was “constrained”.
